The assay has as its target T1, 5-HT transporter (Rattus norvegicus, UniProt P31652).
T1 construct: from tissue; host or cells: rat brain synaptosomes (P2 fraction) from medulla and pons
As to the kind of experiment: 5-HT uptake inhibition in rat brain synaptosomes (medulla and pons), [3H]-5-HT. Type of assay: biochemical. The source says:
a) Method for Determining Noradrenalin and 5-HT Uptake Inhibition:
Synaptosomes from rat brain regions are freshly isolated for in vitro studies, as described in the publication “The isolation of nerve endings from brain” by E. G. Gray and V. P. Whittaker, J. Anatomy 96, pages 79-88, 1962. The corresponding literature description is hereby introduced as a reference and is deemed to be part of the disclosure.
The tissue (hypothalamus for the determination of noradrenalin uptake inhibition and medulla and pons for the determination of 5-HT uptake inhibition) is homogenised in ice-cooled 0.32 M sucrose (100 mg of tissue/1 mL) in a glass homogeniser with Teflon pestle using five complete up and down strokes at 840 revolutions/minute.
The homogenate is centrifuged at 4° C. for 10 minutes at 1000 g. After subsequent centrifugation at 17000 g for 55 minutes, the synaptosomes (P2 fraction) are obtained, which are resuspended in 0.32 M […] (0.5 mL/100 mg of original weight).
The particular uptake is measured in a 96-well microtitre plate. The volume is 250 μl and the incubation proceeds at room temperature (approx. 20-25° C.) under an O2 atmosphere.
The incubation time is 7.5 minutes for [^3H]-NA and 5 minutes for [^3H]-5-HT. The 96 samples are then filtered through a Unifilter GF/B® microtitre plate (Packard) and washed with 200 mL of incubated buffer using a “Brabdel MPXRI-96T Cell-Harvester”. The Unifilter GF/B plate is dried for 1 hour at 55° C. The plate is then sealed with a Back Seal® (Packard) and 35 μl of scintillation fluid are added per well (Ultima Gold®, Packard). After sealing with a top Seal® (Packard) and establishing an equilibrium (around 5 hours), radioactivity is determined in a “Trilux 1450 Microbeta” (Wallac).
The quantity of protein used in the above determination corresponds to the values known from the literature, as for example described in “Protein measurement with the folin phenol reagent”, Lowry et al., J. Biol. Chem., 193, 265-275, 1951.
A detailed description of the method may additionally be found in the literature, for example in M. Ch. Frink, H.-H. Hennies, W. Engelberger, M. Haurand and B. Wilffert (1996) Arzneim.-Forsch./Drug Res. 46 (III), 11, 1029-1036.

One may read the inhibition as the drop in the measured response relative to a control, in per cent. Low readings indicate a weak effect, high ones a strong effect.

Structures are written as SMILES.

T1 sequence (P31652 whole entry): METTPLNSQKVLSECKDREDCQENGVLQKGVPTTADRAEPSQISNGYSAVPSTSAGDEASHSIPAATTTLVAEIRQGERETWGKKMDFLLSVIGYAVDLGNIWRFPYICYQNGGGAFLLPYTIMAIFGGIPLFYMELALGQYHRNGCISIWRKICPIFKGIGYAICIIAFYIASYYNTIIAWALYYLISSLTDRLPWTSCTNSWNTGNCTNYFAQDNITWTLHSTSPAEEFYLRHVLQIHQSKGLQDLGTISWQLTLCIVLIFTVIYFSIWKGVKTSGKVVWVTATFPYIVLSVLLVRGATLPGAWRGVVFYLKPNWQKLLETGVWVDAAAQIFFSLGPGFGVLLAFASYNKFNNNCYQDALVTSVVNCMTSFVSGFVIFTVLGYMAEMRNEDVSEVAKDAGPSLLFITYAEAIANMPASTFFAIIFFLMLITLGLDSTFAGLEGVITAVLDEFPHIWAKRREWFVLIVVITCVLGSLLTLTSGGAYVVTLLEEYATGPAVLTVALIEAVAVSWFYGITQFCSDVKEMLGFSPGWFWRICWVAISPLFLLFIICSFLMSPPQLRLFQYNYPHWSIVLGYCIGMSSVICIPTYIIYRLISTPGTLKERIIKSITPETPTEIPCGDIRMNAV

Molecule `O=C1OC2(CCN(C(=S)NCc3ccccc3)CC2)CN1Cc1cccc(Br)c1` [Example 16, 3-(3-bromobenzyl)-2-oxo-1-oxa-3,8-diazaspiro[4.5]decane-8-carbothioic acid benzylamide] registered an inhibition at 10 µM of 54%.
The figure for `COc1cccc(CN2CC3(CCN(C(=O)c4ccc(OC)cc4OC)CC3)OC2=O)c1` [Example 112, 8-(2,4-dimethoxybenzoyl)-3-(3-methoxybenzyl)-1-oxa-3,8-diazaspiro[4.5]decan-2-one] is 66%; for `N#Cc1ccc(CN2CC3(CCN(C(=O)c4ccc(-c5ccccc5)cc4)CC3)OC2=O)cc1` [Example 115, 4-[8-(biphenyl-4-carbonyl)-2-oxo-1-oxa-3,8-diazaspiro[4.5]dec-3-ylmethyl]benzonitrile] it is 84%.
Under `Cc1cc(C)cc(CN2CC3(CCN(C(=O)c4ccc(Br)cc4)CC3)OC2=O)c1` [Example 124, 8-(4-bromobenzoyl)-3-(3,5-dimethylbenzyl)-1-oxa-3,8-diazaspiro[4.5]decan-2-one] stands 72%; under `N#Cc1ccccc1CN1CC2(CCN(C(=O)Nc3cc(F)ccc3F)CC2)OC1=O` [Example 32, 3-(2-cyanobenzyl)-2-oxo-1-oxa-3,8-diazaspiro[4.5]decane-8-carboxylic acid (2,5-difluorophenyl)amide], 56%; under `O=C1OC2(CCN(C(=S)NCc3ccccc3)CC2)CN1Cc1ccc(C(F)(F)F)cc1` [Example 3, 2-oxo-3-(4-trifluoromethylbenzyl)-1-oxa-3,8-diazaspiro[4.5]decane-8-carbothioic acid benzylamide], 69%.
Under `COc1ccc(OC)c(NC(=O)N2CCC3(CC2)CN(Cc2ccc4ccccc4c2)C(=O)O3)c1` [Example 55, 3-naphthalen-2-ylmethyl-2-oxo-1-oxa-3,8-diazaspiro[4.5]decane-8-carboxylic acid (2,5-dimethoxyphenyl)amide] stands 61%.
Turning to `O=C1OC2(CCN(C(=O)c3ccc(Cl)nc3)CC2)CN1Cc1ccc2ccccc2c1` [Example 120, 8-(6-chloropyridine-3-carbonyl)-3-naphthalen-2-ylmethyl-1-oxa-3,8-diazaspiro[4.5]decan-2-one], testing at 10 µM gave an inhibition of 66%.
`N#Cc1ccccc1CN1CC2(CCN(Cc3csc4ccc(Cl)cc34)CC2)OC1=O` [Example 84, 2-[8-(5-chlorobenzo[b]thiophen-3-ylmethyl)-2-oxo-1-oxa-3,8-diazaspiro[4.5]dec-3-ylmethyl]benzonitrile] showed an inhibition at 10 µM of 62%.
Under `Cc1cc(C)cc(CN2CC3(CCN(C(=O)c4ccccn4)CC3)OC2=O)c1` [Example 119, 3-(3,5-dimethylbenzyl)-8-(pyridine-2-carbonyl)-1-oxa-3,8-diazaspiro[4.5]decan-2-one] stands 67%.
Under `N#Cc1ccccc1CN1CC2(CCN(C(=O)CC3(CC(=O)O)CCCC3)CC2)OC1=O` [Example 71, (1-{2-[3-(2-cyanobenzyl)-2-oxo-1-oxa-3,8-diazaspiro[4.5]dec-8-yl]-2-oxoethyl}cyclopentyl)acetic acid] stands 62%.
Under `Cc1cc(C)cc(CN2CC3(CCN(S(=O)(=O)Cc4ccccc4Cl)CC3)OC2=O)c1` [Example 116, 8-(2-chlorobenzylsulfonyl)-3-(3,5-dimethylbenzyl)-1-oxa-3,8-diazaspiro[4.5]decan-2-one] stands 76%; under `O=C1OC2(CCN(C(=O)c3cc(C(F)(F)F)cc(C(F)(F)F)c3)CC2)CN1Cc1ccc(C(F)(F)F)cc1` [Example 143, 8-(3,5-bis-trifluoromethylbenzoyl)-3-(4-trifluoromethylbenzyl)-1-oxa-3,8-diazaspiro[4.5]decan-2-one], 66%.
Molecule `COc1ccc([N+](=O)[O-])cc1CN1CC2(CCN(C(=O)c3cccnc3Oc3ccccc3)CC2)OC1=O` [Example 140, 3-(2-methoxy-5-nitrobenzyl)-8-(2-phenoxypyridine-3-carbonyl)-1-oxa-3,8-diazaspiro[4.5]decan-2-one] registered an inhibition at 10 µM of 64%.
Under `CCOC(=O)c1cccc(NC(=O)N2CCC3(CC2)CN(Cc2ccccc2C(F)(F)F)C(=O)O3)c1` [Example 59, 3-{[2-oxo-3-(2-trifluoromethylbenzyl)-1-oxa-3,8-diazaspiro[4.5]decane-8-carbonyl]amino}benzoic acid ethyl ester] stands 47%; under `O=C1OC2(CCN(Cc3ccc(OC(F)(F)F)cc3)CC2)CN1Cc1ccc(F)c(F)c1` [Example 81, 3-(3,4-difluorobenzyl)-8-(4-trifluoromethoxybenzyl)-1-oxa-3,8-diazaspiro[4.5]decan-2-one], 75%.
Under `CCc1ccc(CS(=O)(=O)N2CCC3(CC2)CN(Cc2cccc(Br)c2)C(=O)O3)cc1` [Example 102, 3-(3-bromobenzyl)-8-(4-ethylbenzylsulfonyl)-1-oxa-3,8-diazaspiro[4.5]decan-2-one] stands 67%; under `COc1ccc(NC(=O)N2CCC3(CC2)CN(Cc2ccc(C#N)cc2)C(=O)O3)cc1` [Example 47, 3-(4-cyanobenzyl)-2-oxo-1-oxa-3,8-diazaspiro[4.5]decane-8-carboxylic acid (4-methoxyphenyl)amide], 49%; under `COc1cc(C)c(CS(=O)(=O)N2CCC3(CC2)CN(Cc2cc(C)cc(C)c2)C(=O)O3)c(C)c1C` [Example 114, 3-(3,5-dimethylbenzyl)-8-(4-methoxy-2,3,6-trimethylbenzylsulfonyl)-1-oxa-3,8-diazaspiro[4.5]decan-2-one], 73%.
The figure for `CC(=O)c1cccc(NC(=O)N2CCC3(CC2)CN(Cc2ccc(C#N)cc2)C(=O)O3)c1` [Example 56, 3-(4-cyanobenzyl)-2-oxo-1-oxa-3,8-diazaspiro[4.5]decane-8-carboxylic acid (3-acetylphenyl)amide] is 60%; for `CC(NC(=O)N1CCC2(CC1)CN(Cc1ccc(C(F)(F)F)cc1)C(=O)O2)c1cccc2ccccc12` (centres unmarked) [Example 48, 2-oxo-3-(4-trifluoromethylbenzyl)-1-oxa-3,8-diazaspiro[4.5]decane-8-carboxylic acid (1-naphthalen-1-yl-ethyl)amide] it is 43%; for `CC(=O)Nc1ccc(C(=O)N2CCC3(CC2)CN(Cc2cccc(C#N)c2)C(=O)O3)cc1` [Example 91, N-{4-[3-(3-cyanobenzyl)-2-oxo-1-oxa-3,8-diazaspiro[4.5]decane-8-carbonyl]phenyl}acetamide] it is 68%.
`COc1ccc([N+](=O)[O-])cc1CN1CC2(CCN(Cc3cccc([N+](=O)[O-])c3)CC2)OC1=O` [Example 88, 3-(2-methoxy-5-nitrobenzyl)-8-(3-nitrobenzyl)-1-oxa-3,8-diazaspiro[4.5]decan-2-one] displayed an inhibition at 10 µM of 70%.
Under `CC(NC(=O)N1CCC2(CC1)CN(Cc1ccccc1C(F)(F)F)C(=O)O2)c1cccc2ccccc12` (centres unmarked) [Example 54, 2-oxo-3-(2-trifluoromethylbenzyl)-1-oxa-3,8-diazaspiro[4.5]decane-8-carboxylic acid (1-naphthalen-1-yl-ethyl)amide] stands 75%; under `Cc1ccc(C(=O)N2CCC3(CC2)CN(Cc2ccc(F)c(F)c2)C(=O)O3)cc1` [Example 136, 3-(3,4-difluorobenzyl)-8-(4-methylbenzoyl)-1-oxa-3,8-diazaspiro[4.5]decan-2-one], 67%; under `COC(=O)CCC(=O)N1CCC2(CC1)CN(Cc1cccc(Br)c1)C(=O)O2` [Example 133, 4-[3-(3-bromobenzyl)-2-oxo-1-oxa-3,8-diazaspiro[4.5]dec-8-yl]-4-oxobutanoic acid methyl ester], 64%.
Under `COc1ccc([N+](=O)[O-])cc1CN1CC2(CCN(C(=S)NCc3ccccc3)CC2)OC1=O` [Example 23, 3-(2-methoxy-5-nitrobenzyl)-2-oxo-1-oxa-3,8-diazaspiro[4.5]decane-8-carbothioic acid benzylamide] stands 60%; under `CCCCC(=O)N1CCC2(CC1)CN(Cc1cc([N+](=O)[O-])ccc1OC)C(=O)O2` [Example 123, 3-(2-methoxy-5-nitrobenzyl)-8-pentanoyl-1-oxa-3,8-diazaspiro[4.5]decan-2-one], 71%.
The figure for `COc1ccc([N+](=O)[O-])cc1CN1CC2(CCN(C(=O)c3cccc(N(C)C)c3)CC2)OC1=O` [Example 138, 8-(3-dimethylaminobenzoyl)-3-(2-methoxy-5-nitrobenzyl)-1-oxa-3,8-diazaspiro[4.5]decan-2-one] is 65%.

The values are drawn from patent US8153795B2, “Substituted 1-oxa-3,8-diazaspiro[4.5]-decan-2-one-compounds and the use thereof for producing drugs” (Gruenenthal GmbH, priority 2005, dated 2012).
